{"source": "patent US20080214808A1", "about": "“Preparation of Aseptic 3-[2-[4-((6-Fluoro-1,2-Benzisoxazol-3-Yl)-1-Piperidinyl]-6,7,8,9-Tetrahydro-9-Hydroxy-2-Methyl-4H-Pyrido[1,2-a]Pyrimidin-4-One Palmitate Ester” (priority 2005, published 2008)", "test": "Gamma irradiation of compound (I) in different containers, amounts of (I) and breakdown products by HPLC", "type": "physicochemical", "from_the_text": "During pharmaceutical development, aseptic formulations of paliperidone palmitate (I) were initially obtained by gamma irradiation.\nCompound (I) was irradiated with various doses of gamma rays in different containers.", "key": {"[1]": {"settings": "Glass container, gamma dose 5 kGY"}, "[2]": {"settings": "Glass container, gamma dose 10 kGY"}, "[3]": {"settings": "Glass container, gamma dose 15 kGY"}, "[4]": {"settings": "Glass container, gamma dose 20 kGY"}, "[5]": {"settings": "Glass container, gamma dose 25 kGY"}, "[6]": {"settings": "Glass container, gamma dose 30 kGY"}, "[7]": {"settings": "Glass/metal container, gamma dose 5 kGY"}, "[8]": {"settings": "Glass/metal container, gamma dose 10 kGY"}, "[9]": {"settings": "Glass/metal container, gamma dose 15 kGY"}, "[10]": {"settings": "Glass/metal container, gamma dose 20 kGY"}, "[11]": {"settings": "Glass/metal container, gamma dose 25 kGY"}, "[12]": {"settings": "Glass/metal container, gamma dose 30 kGY"}, "[13]": {"settings": "Plastic container, gamma dose 15 kGY"}, "[14]": {"settings": "Plastic container, gamma dose 20 kGY"}, "[15]": {"settings": "Plastic container, gamma dose 25 kGY"}, "[16]": {"settings": "gamma irradiation, maximum found"}}, "data": [{"compound": "CCCCCCCCCCCCCCCC(=O)OC1CCCn2c1nc(C)c(CCN1CCC(c3noc4cc(F)ccc34)CC1)c2=O", "note": "(centres unmarked) [(I), 3-[2-[4-(6-fluoro-1,2-benzisoxazol-3-yl)-1-piperidinyl]ethyl]-6,7,8,9-tetrahydro-9-hydroxy-2-methyl-4H-pyrido[1,2-a]pyrimidin-4-one palmitate ester]", "values": [{"measurement": "amount of (I)", "setting": "[1]", "result": 98.8, "unit": "%"}, {"measurement": "amount of breakdown product (III)", "setting": "[1]", "result": 0.08, "unit": "%"}, {"measurement": "amount of breakdown products (II) [sum of (II-a) and (II-b)]", "setting": "[1]", "result": 0.02, "unit": "%"}, {"measurement": "amount of (I)", "setting": "[2]", "result": 98.7, "unit": "%"}, {"measurement": "amount of breakdown product (III)", "setting": "[2]", "result": 0.15, "unit": "%"}, {"measurement": "amount of breakdown products (II) [sum of (II-a) and (II-b)]", "setting": "[2]", "result": 0.05, "unit": "%"}, {"measurement": "amount of (I)", "setting": "[3]", "result": 98.5, "unit": "%"}, {"measurement": "amount of breakdown product (III)", "setting": "[3]", "result": 0.23, "unit": "%"}, {"measurement": "amount of breakdown products (II) [sum of (II-a) and (II-b)]", "setting": "[3]", "result": 0.11, "unit": "%"}, {"measurement": "amount of (I)", "setting": "[4]", "result": 98.3, "unit": "%"}, {"measurement": "amount of breakdown product (III)", "setting": "[4]", "result": 0.34, "unit": "%"}, {"measurement": "amount of breakdown products (II) [sum of (II-a) and (II-b)]", "setting": "[4]", "result": 0.17, "unit": "%"}, {"measurement": "amount of (I)", "setting": "[5]", "result": 98.2, "unit": "%"}, {"measurement": "amount of breakdown product (III)", "setting": "[5]", "result": 0.36, "unit": "%"}, {"measurement": "amount of breakdown products (II) [sum of (II-a) and (II-b)]", "setting": "[5]", "result": 0.18, "unit": "%"}, {"measurement": "amount of (I)", "setting": "[6]", "result": 98, "unit": "%"}, {"measurement": "amount of breakdown product (III)", "setting": "[6]", "result": 0.46, "unit": "%"}, {"measurement": "amount of breakdown products (II) [sum of (II-a) and (II-b)]", "setting": "[6]", "result": 0.24, "unit": "%"}, {"measurement": "amount of (I)", "setting": "[7]", "result": 98.8, "unit": "%"}, {"measurement": "amount of breakdown product (III)", "setting": "[7]", "result": 0.08, "unit": "%"}, {"measurement": "amount of breakdown products (II) [sum of (II-a) and (II-b)]", "setting": "[7]", "result": 0.02, "unit": "%"}, {"measurement": "amount of (I)", "setting": "[8]", "result": 98.9, "unit": "%"}, {"measurement": "amount of breakdown product (III)", "setting": "[8]", "result": 0.1, "unit": "%"}, {"measurement": "amount of (I)", "setting": "[9]", "result": 98.5, "unit": "%"}, {"measurement": "amount of breakdown product (III)", "setting": "[9]", "result": 0.23, "unit": "%"}, {"measurement": "amount of breakdown products (II) [sum of (II-a) and (II-b)]", "setting": "[9]", "result": 0.11, "unit": "%"}, {"measurement": "amount of (I)", "setting": "[10]", "result": 98.4, "unit": "%"}, {"measurement": "amount of breakdown product (III)", "setting": "[10]", "result": 0.29, "unit": "%"}, {"measurement": "amount of breakdown products (II) [sum of (II-a) and (II-b)]", "setting": "[10]", "result": 0.15, "unit": "%"}, {"measurement": "amount of (I)", "setting": "[11]", "result": 97.2, "unit": "%"}, {"measurement": "amount of breakdown product (III)", "setting": "[11]", "result": 0.35, "unit": "%"}, {"measurement": "amount of breakdown products (II) [sum of (II-a) and (II-b)]", "setting": "[11]", "result": 0.05, "unit": "%"}, {"measurement": "amount of (I)", "setting": "[12]", "result": 98.2, "unit": "%"}, {"measurement": "amount of breakdown product (III)", "setting": "[12]", "result": 0.45, "unit": "%"}, {"measurement": "amount of breakdown products (II) [sum of (II-a) and (II-b)]", "setting": "[12]", "result": 0.21, "unit": "%"}, {"measurement": "amount of (I)", "setting": "[13]", "result": 98.3, "unit": "%"}, {"measurement": "amount of breakdown product (III)", "setting": "[13]", "result": 0.23, "unit": "%"}, {"measurement": "amount of breakdown products (II) [sum of (II-a) and (II-b)]", "setting": "[13]", "result": 0.03, "unit": "%"}, {"measurement": "amount of (I)", "setting": "[14]", "result": 97.9, "unit": "%"}, {"measurement": "amount of breakdown product (III)", "setting": "[14]", "result": 0.29, "unit": "%"}, {"measurement": "amount of breakdown products (II) [sum of (II-a) and (II-b)]", "setting": "[14]", "result": 0.03, "unit": "%"}, {"measurement": "amount of (I)", "setting": "[15]", "result": 97.2, "unit": "%"}, {"measurement": "amount of breakdown product (III)", "setting": "[15]", "result": 0.35, "unit": "%"}, {"measurement": "amount of breakdown products (II) [sum of (II-a) and (II-b)]", "setting": "[15]", "result": 0.06, "unit": "%"}, {"measurement": "breakdown product (III) formed", "setting": "[16]", "result": "up to 0.46%"}, {"measurement": "breakdown products (II) [(II-a) and (II-b), co-eluting in HPLC] formed", "setting": "[16]", "result": "up to 0.24%"}, {"measurement": "amount of the breakdown products (II) and (III) versus gamma dose", "setting": "various doses of gamma rays, different containers", "result": "increased dose-dependently"}]}]}
